In PMC10261008, “A peptide triple agonist of GLP-1, neuropeptide Y1, and neuropeptide Y2 receptors promotes glycemic control and weight loss” (Scientific Reports, 2023):
pEC50, pIC50: −log10 of the molar value. Square brackets hold non-standard residues; d marks the D form. Ends that are not written are not given here.

What was measured:
human GLP-1R [1] = target: T1, human GLP-1R (Homo sapiens, UniProt P43220); experiment: SPR binding to His-tagged GLP-1R on NTA sensor; details: in-house SPR, 0.1–100 nM, duplicate
T1 sequence (P43220 24-463): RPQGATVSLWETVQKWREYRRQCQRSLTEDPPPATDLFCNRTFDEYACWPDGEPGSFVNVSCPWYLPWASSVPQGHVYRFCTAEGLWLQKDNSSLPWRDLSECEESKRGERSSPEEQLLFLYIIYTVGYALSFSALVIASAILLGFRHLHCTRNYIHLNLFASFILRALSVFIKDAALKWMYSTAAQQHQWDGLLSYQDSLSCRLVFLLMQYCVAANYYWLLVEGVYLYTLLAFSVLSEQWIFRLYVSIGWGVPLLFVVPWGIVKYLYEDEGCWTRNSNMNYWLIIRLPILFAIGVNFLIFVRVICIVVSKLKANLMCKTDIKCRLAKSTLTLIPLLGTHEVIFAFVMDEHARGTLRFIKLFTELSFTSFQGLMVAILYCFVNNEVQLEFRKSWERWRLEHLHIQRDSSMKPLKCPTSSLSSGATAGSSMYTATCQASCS

human GLP-1R [2] = target: T1, human GLP-1R; experiment: cAMP FRET agonism at GLP-1R in H188-GLP-1R transduced HEK293 cells; type: cell-based; details: FRET ratio tracking cAMP, Fig. 1A
Description: H188 virally transduced HEK293 cells stably expressing human GLP-1R were obtained from Novo Nordisk A/S for use in FRET assays. HEK293 C24 cells stably expressing the H188 FRET reporter were obtained by G418 selection and grown in monolayers to ∼70% confluency in 100 cm^2 tissue culture dishes and were then transfected with plasmids (11 μg/dish) encoding human GLP-1R, human Y2-R, or human Y1-R. Transfected cells were then incubated for 48 h in fresh culture media. For real-time FRET kinetic assays, cells were harvested, resuspended in 21 mL of SES buffer, and plated at 196 μL per well. […] Y1-R and Y2-R agonism to stimulate Gi proteins and to inhibit adenylyl cyclase was monitored by detecting the ability of PYY peptides, GEP44, or GEP12 to counteract the ability of Adenosine (acting through endogenous A2B receptor and Gs proteins) to increase levels of cAMP. For these assays, increased levels of cAMP were measured as an increase of the 485/535 nm FRET ratio serving as a readout for binding of cAMP to the H188 biosensor that is based on the exchange protein activated by cAMP[15].

human Y2-R [3] = target: T2, human Y2-R (Homo sapiens, UniProt P49146); experiment: Y2-R agonism: counteraction of adenosine-stimulated cAMP (FRET) in HEK293 C24 cells transfected with Y2-R; type: cell-based; details: HEK293 C24 cells transiently transfected with Y2-R, 20 min pre-treatment; also reported previously [16]; read-out: IC50, inhibition of adenosine-stimulated cAMP production at Y2-R
T2 sequence (P49146 1-381): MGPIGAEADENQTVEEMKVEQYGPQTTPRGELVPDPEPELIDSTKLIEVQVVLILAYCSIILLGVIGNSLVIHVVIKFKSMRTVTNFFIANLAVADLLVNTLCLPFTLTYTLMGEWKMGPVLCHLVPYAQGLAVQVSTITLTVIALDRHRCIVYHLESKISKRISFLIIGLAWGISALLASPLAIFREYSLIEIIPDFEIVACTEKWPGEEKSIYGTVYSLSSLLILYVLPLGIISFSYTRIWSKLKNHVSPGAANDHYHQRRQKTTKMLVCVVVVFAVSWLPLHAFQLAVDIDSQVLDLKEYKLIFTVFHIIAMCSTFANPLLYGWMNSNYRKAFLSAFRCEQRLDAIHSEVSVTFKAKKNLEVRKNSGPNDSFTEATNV
Description: H188 virally transduced HEK293 cells stably expressing human GLP-1R were obtained from Novo Nordisk A/S for use in FRET assays. HEK293 C24 cells stably expressing the H188 FRET reporter were obtained by G418 selection and grown in monolayers to ∼70% confluency in 100 cm^2 tissue culture dishes and were then transfected with plasmids (11 μg/dish) encoding human GLP-1R, human Y2-R, or human Y1-R. Transfected cells were then incubated for 48 h in fresh culture media. For real-time FRET kinetic assays, cells were harvested, resuspended in 21 mL of SES buffer, and plated at 196 μL per well. Plated cells were pretreated with 4 μL of agonist, or antagonist (Ex9-39 (GLP-1R antagonist) or BIIE0246 (Y2-R antagonist)), at a given target concentration and incubated for 20 min before performing the assay. Y1-R and Y2-R agonism to stimulate Gi proteins and to inhibit adenylyl cyclase was monitored by detecting the ability of PYY peptides, GEP44, or GEP12 to counteract the ability of Adenosine (acting through endogenous A2B receptor and Gs proteins) to increase levels of cAMP. For these assays, increased levels of cAMP were measured as an increase of the 485/535 nm FRET ratio serving as a readout for binding of cAMP to the H188 biosensor that is based on the exchange protein activated by cAMP[15].

[4] = tested on: lean and diet-induced obese (DIO) rats; parameters: method as in PMID 33449689; details: rat, in vivo; cited from earlier work
human Y1-R = target: T3, human Y1-R (Homo sapiens, UniProt P25929); experiment: SPR binding at Y1-R; details: in-house SPR, 4 pM–19 µM; read-out: half-maximal binding at Y1-R
T3 construct: His tag; purchased antibodies-online Inc. ABIN7086253
T3 sequence (P25929 1-384): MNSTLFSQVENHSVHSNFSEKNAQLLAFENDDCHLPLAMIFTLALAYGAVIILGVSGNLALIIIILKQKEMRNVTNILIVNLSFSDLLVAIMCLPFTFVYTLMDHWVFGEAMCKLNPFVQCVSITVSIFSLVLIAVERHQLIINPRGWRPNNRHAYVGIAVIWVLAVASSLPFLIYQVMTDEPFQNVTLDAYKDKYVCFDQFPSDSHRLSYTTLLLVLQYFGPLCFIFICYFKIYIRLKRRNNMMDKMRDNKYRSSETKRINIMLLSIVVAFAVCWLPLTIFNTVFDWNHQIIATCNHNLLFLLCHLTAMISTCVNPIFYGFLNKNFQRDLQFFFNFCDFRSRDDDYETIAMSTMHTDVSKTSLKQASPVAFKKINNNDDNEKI
Description: Peptides were precipitated with cold (4 °C) diethyl ether and purified on an Agilent 1200 series High-Performance Liquid Chromatography (HPLC) instrument (10–75% HPLC-grade acetonitrile for 20 min at a 2 mL/min flow rate over an Agilent Zorbax C18 column (5 µm, 9.4 × 250 mm) tracked at 220, 254, and 280 nm. Peptides were purified to > 95%. Peptide binding was assayed by EuroscreenFast (Gosselies, Belgium) or in-house with a Nicoya Open Surface Plasmon Resonance (SPR) instrument. Internalization and β-arrestin recruitment assays were performed by Eurofins Discovery (Fremont, CA, USA).
Peptide binding to human Y1-R was performed in-house by SPR.

human GLP-1R [5] = target: T1, human GLP-1R; experiment: β-arrestin-2 recruitment at GLP-1R; type: cell-based; details: dose–response 5.51 pM–551 nM, duplicate
human GLP-1R [6] = target: T1, human GLP-1R; experiment: Agonist-activated internalization of GLP-1R; type: cell-based; details: dose–response 30 pM–1 µM, duplicate
Description: Human GLP-1R (Gs-coupled) cell-based agonist-activated internalization assays were performed by Eurofins Discovery.

DIO Wistar rats = experiment: Dose escalation study of food intake and tolerability in diet-induced obese male rats; type: in vivo, rat; details: s.c. once daily
Description: Wistar rats purchased from Charles River Laboratories (Wilmington, MA) were used in this study. The rats were provided with ad libitum access to food and water and were kept on a 12 h light/12 h dark cycle. For all other experiments, male rats (51–75 g; approximately 4 weeks of age) were fed a diet with 60% of the calories provided by fat (D12492; Research Diets, Inc; New Brunswick, NJ; 5.21 kcal/g) for approximately five months before the start of the study generate diet-induced obesity (DIO). Animals were individually housed in a temperature (22 ± 1 °C) and humidity-controlled (57 ± 4%) room. All body weight measurements were taken just before the start of the dark cycle.
GEP44 stock solutions were prepared using sterile ultra-pure H2O and gently agitated at 4 °C for > 24 h and then aliquoted and stored at − 20 °C. […] GEP12 (aliquots up to 5 mg) was dissolved in 100 µL DMSO and mixed at 1000 rpm for three min to create a stock solution. Stock solutions were diluted to working solutions in 0.9% normal saline, resulting in a final DMSO concentration of < 2%. […]
Rats were singly housed in BioDAQ cages and allowed to acclimate for at least 10 days before the start of this study. […] Body weight was assessed daily just before the start of the dark cycle. Food and water were available ad libitum and consumption was monitored continuously.

human Y2-R [7] = target: T2, human Y2-R; experiment: Radioligand competitive binding assay at Y2-R in CHO-K1 cells; details: 1 pM–1 µM, duplicate independent runs, read-out: half-maximal binding at Y2-R
patients = details: cited from earlier work

F[dS]QGTFTSDLSKYLEEEAVREFIAWLKNGGPSRHYLNLVTRQRY-NH2 [GEP12]
pIC50 (human GLP-1R [1]): 7.72
pEC50 (human GLP-1R [2]): 7.76

H[dS]QGTFTSDLSKYLEEEAVREFIAWLKNGGPSRHYLNLVTRQRY-NH2 [GEP44]
pIC50 (human Y2-R [3]): 7.47
visceral malaise [4]: no visceral malaise
pIC50 (human Y1-R): 7.06
pEC50 (human GLP-1R [5]): 8.80
pEC50 (human GLP-1R [6]): 8.40
no observed adverse effect level (NOAEL) (DIO Wistar rats): 20 nmol/kg/day
pIC50 (human Y2-R [7]): 7.18

tirzepatide
patients achieving a weight loss of 20% and more (patients; 10 or 15 mg per week): at least 50%
diarrhea, incidence (patients; human, in vivo): 15–17%
discontinuation of treatment due to gastrointestinal symptoms (patients; human, in vivo): 3–7%
nausea, incidence (patients; human, in vivo): 12–24%
vomiting, incidence (patients; human, in vivo): 6–10%
